Tests used:
Type in all cases: in vitro ADME
[1] = Hepatocyte intrinsic clearance assay (metabolic stability), human hepatocytes; conditions: male, human, cryopreserved pooled hepatocytes, Human Hepatocytes, 1 μM test compound
Text: (§1) The liver is an important organ in the body for drug metabolism. This Example describes hepatocyte intrinsic clearance assays using both human and rat hepatocytes to evaluate the metabolic stability of the indole compounds disclosed herein. The parameters measured include t1/2 (half-life), CLint (intrinsic clearance), and EH (hepatic extraction ratio).
(§2) Testosterone (Lot FE111011-01) was obtained from Cerilliant (Round Rock, Tex.). 7-hydroxycoumarin (Lot 11631ED) was obtained from Sigma Aldrich (St. Louis, Mo.). Cryopreserved human hepatocytes pooled from ten donor males (X008001), cryopreserved male IRC/CD-1 mouse hepatocytes (M005052), INVITROGRO HI Medium (incubation), and INVITROGRO HT Medium (thawing) were obtained from Bioreclamation IVT (Baltimore, Md.). All solvents were obtained from commercial sources and used without further purification.
(§3) Each test compound was prepared as a 1 mM stock solution in DMSO. A 2 μM solution of test compound and positive controls were prepared in INVITROGRO HI Medium (incubation). These solutions were pre-warmed in a sterile incubator set to maintain 37° C., 5% CO2, and 98% humidity. Cryopreserved hepatocytes were prepared at a concentration of 2×10^6 living cells/mL in incubation media and pre-warmed in the incubator. The compound solutions and hepatocyte mixtures were then combined at a ratio of 1:1 (v:v). The final volume of the reaction mixture was 750 μL, containing 1 μM test compound (10 μM for 7-hydroxycoumarin) and […]. The reaction mixture was placed in the incubator on a plate shaker. After 0, 15, 30, 60, 90, and 120 minutes of incubation, 100 μL of reaction mixtures were removed from the incubation plate and mixed with 150 μL of ice-cold acetonitrile in a designated well of a 96-well crash plate. The 96-well crash plate was placed on ice for 15 min, and samples were centrifuged (3,600 RPM, 10 min, 4° C.) to precipitate protein. The supernatants were diluted 1:1 (v:v) with water containing 0.15 μM verapamil and/or 1 μM tolbutamide (internal standards for positive and negative modes, respectively) in a 96-well shallow injection plate. This plate was sealed for LC-MS analysis. All measurements were done in duplicate.
(§4) The residual compound remaining (% R) was determined from LC-MS peak areas by comparison to the zero time point. Metabolic half-life (t1/2) and intrinsic clearance (CLint) values were calculated from the slope of the plot of ln (% R) vs. time and the concentration of hepatocytes present in the incubation. Percent remaining at 60 minutes was calculated by plugging in the 60 minute value into the slope equation generated by the percent remaining time points.
(§5) In vivo hepatic clearance CLH was calculated using the well stirred liver model according to the following equation:
(§6) [formula] where QH is the total liver blood flow, fu is unbound fraction of the drug, and CL′int is defined as follows: CL′int=CLint×(10^6 cells/g of liver weight)×(g liver weight/kg of body weight). In the first approximation, used in this study, fu=1.
(§7) Hepatic extraction ratio EH was calculated using the following equation:
(§8) [formula] Corresponding physiological parameters used in calculations for all species are shown below in Table 3.

human hepatocytes = experiment: as above; conditions: Human Hepatocytes; well stirred liver model, fu=1
Text: as §1, §2, §3, §4, §5, §6, §7, §8

[2] = Hepatocyte intrinsic clearance assay (metabolic stability), rat hepatocytes; conditions: rat, cryopreserved hepatocytes, Rat Hepatocytes, 1 μM test compound
Text: as §1, §2, §3, §4, §5, §6, §7, §8

rat hepatocytes = experiment: as above; conditions: Rat Hepatocytes; well stirred liver model, fu=1
Text: as §1, §2, §3, §4, §5, §6, §7, §8

[3] = CYP profiling: turnover in human liver microsomes, 30 min, no inhibitor; set-up: % Compound Metabolized at 30 min, No Inhibitor: concentration or dose not given beside the values; conditions: HLMs
Protocol: (§9) In order to investigate the contributions of CYP1A2 and CYP3A4 to the metabolism of the compounds of the present disclosure, human liver microsomes were incubated with the test compounds for 30 minutes in the presence of selective chemical inhibitors furafylline (1A2) and ketoconazole (3A4).

CYP1A2 = biological target: T1, CYP1A2 (Homo sapiens, UniProt P05177); experiment: CYP profiling: human liver microsomes with CYP1A2 inhibitor furafylline; set-up: % Compound Metabolized at 30 min, CYP1A2 Inhibitor: concentration or dose not given beside the values; conditions: HLMs
T1 construct: from tissue; host or cells: human liver microsomes
T1 sequence (P05177 1-516): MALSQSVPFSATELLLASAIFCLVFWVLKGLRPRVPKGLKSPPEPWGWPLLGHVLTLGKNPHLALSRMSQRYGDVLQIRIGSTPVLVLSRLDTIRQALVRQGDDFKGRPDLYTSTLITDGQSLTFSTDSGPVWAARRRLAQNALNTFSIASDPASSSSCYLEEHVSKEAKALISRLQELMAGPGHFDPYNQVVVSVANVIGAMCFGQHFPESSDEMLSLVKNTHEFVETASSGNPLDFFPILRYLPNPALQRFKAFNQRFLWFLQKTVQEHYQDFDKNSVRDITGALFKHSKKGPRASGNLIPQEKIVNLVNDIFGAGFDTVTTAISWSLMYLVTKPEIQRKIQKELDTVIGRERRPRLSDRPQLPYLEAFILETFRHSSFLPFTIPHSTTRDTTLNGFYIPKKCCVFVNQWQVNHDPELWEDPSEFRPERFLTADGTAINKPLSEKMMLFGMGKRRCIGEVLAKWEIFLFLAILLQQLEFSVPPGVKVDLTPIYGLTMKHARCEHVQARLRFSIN
Protocol: as §9

CYP3A4 = biological target: T2, CYP3A4 (Homo sapiens, UniProt P08684); experiment: CYP profiling: human liver microsomes with CYP3A4 inhibitor ketoconazole; set-up: % Compound Metabolized at 30 min, CYP3A4 Inhibitor: concentration or dose not given beside the values; conditions: HLMs
T2 construct: from tissue; host or cells: human liver microsomes
Protocol: as §9

T2 sequence (P08684 whole entry): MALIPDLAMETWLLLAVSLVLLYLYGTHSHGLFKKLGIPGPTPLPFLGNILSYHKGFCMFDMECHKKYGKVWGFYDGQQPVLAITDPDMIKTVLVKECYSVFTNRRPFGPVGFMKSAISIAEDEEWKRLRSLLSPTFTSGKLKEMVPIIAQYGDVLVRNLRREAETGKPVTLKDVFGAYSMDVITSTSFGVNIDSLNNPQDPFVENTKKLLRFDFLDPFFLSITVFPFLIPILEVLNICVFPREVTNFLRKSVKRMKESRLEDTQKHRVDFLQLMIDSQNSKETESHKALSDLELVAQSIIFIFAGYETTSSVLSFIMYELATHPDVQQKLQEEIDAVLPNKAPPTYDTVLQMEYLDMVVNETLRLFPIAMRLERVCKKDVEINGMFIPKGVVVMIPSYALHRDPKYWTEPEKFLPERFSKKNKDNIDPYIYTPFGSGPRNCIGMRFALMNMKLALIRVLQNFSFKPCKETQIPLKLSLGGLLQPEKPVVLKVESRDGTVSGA

half-life at 1 μM [1]: 46.1 h
hepatocyte CLint at 1 μM [1]: 0.251 µL/min/1e6 cells
EH (hepatic extraction ratio) (human hepatocytes): 1.9%
half-life at 1 μM [2]: 1.3 h
hepatocyte CLint at 1 μM [2]: 8.73 µL/min/1e6 cells
EH (hepatic extraction ratio) (rat hepatocytes): 36.9%
% Compound Metabolized at 30 min, No Inhibitor [3]: 2%
% Compound Metabolized at 30 min, CYP1A2 Inhibitor (CYP1A2): 0%
% Inhibition Relative to Negative Control, 1A2 (CYP1A2; 30 min): 100%
% Compound Metabolized at 30 min, CYP3A4 Inhibitor (CYP3A4): 8%
% Inhibition Relative to Negative Control, 3A4 (CYP3A4; 30 min): None
Compound: NC(c1csc(C(=O)c2c[nH]c3ccccc23)n1)C(F)(F)F (centres unmarked) [ARI-100]

Source: patent US11390621B2, “Chiral indole compounds and their use” (ARIAGEN, INC., priority 2019, dated 2022)
